# Laboratory results published in patent US5173509A (The United States of America as represented by the …, priority 1990, dated 1992).
# “Also recorded” adds a separate entry of the source.
# Columns and labels:
# [1] = when used at the levels herein taught; cited from earlier work
# [2] = system: patient having symptomatic hypercalcemia; conditions: cited from earlier work
# [3] = cited from earlier work
# [4] = system: calvaria; assay: Bone resorption assay (calcium released into media by mouse calvaria); assay type: cell-based, mice (In:GP(s)), three to six day old; conditions: for calcium in the media: three days
# Description: Glutamine was obtained from Biofluids (Catalog No. 300). […] Heparin was obtained from Organon (1000 units/cc). […] Above factors were stored at -20 degrees centigrade.
# Three to six day old mice (In:GP(s)) were obtained from the small animal section of the Veterinarian Resources Branch of the National Institutes of Health. Calvaria were harvested and washed in 500 cc of Hank's Balanced Salt solution without calcium or magnesium (Catalog No. 320, Biofluids) with a stirring bar for one to one and a half hours. The calvaria were placed in 2cc of study media in 16 × 125 mm STYRENE tissue culture tubes (Catalog No. R605, Elkay Products, Inc.). Study media was made by mixing equal volumes of Media A and Media B and then adding the appropriate growth factors. […] The calcium in the media was determined after three days with an ABBOTT Bichromatic Analyzer 100.
# [5] = system: TGF-B cell surface receptors; conditions: cited from earlier work
# [6] = system: EGF cell surface receptors; conditions: cited from earlier work
# [7] = Plasma half life / plasma level; assay type: in vivo, human; conditions: after attainment of an effective plasma level
# Description: The term "plasma" as used herein refers to whole blood plasma having cell bodies spun out by centrifugation, or similar method. […] Chromatog., Vol. 8, pp. 1685-1696 (1985), hereby incorporated by reference.
# [8] = system: PDGF cell surface receptors; conditions: cited from earlier work
compound,measurement,setting,value
"Cc1ccc(C(=O)Nc2ccc(S(=O)(=O)O)c3cc(S(=O)(=O)O)cc(S(=O)(=O)O)c23)cc1NC(=O)c1cccc(NC(=O)Nc2cccc(C(=O)Nc3cc(C(=O)Nc4ccc(S(=O)(=O)O)c5cc(S(=O)(=O)O)cc(S(=O)(=O)O)c45)ccc3C)c2)c1 [suramin, 8,8'-[carbonylbis[imino-3,1-phenylenecarbonylimino(4-methyl-3,1-phenylene)carbonylimino]]bis-1,3,5-naphthalenetrisulfonic acid]",toxicity (in words),[1],relatively low toxicity
same,duration of normocalcemia after suramin treatment,"[2]; one patient, cancer metastatic to bone",remained normocalcemic for three months; also recorded: normalized for three months
same,normalization of hypercalcemia,"[2]; suramin 350 mg/m^2 /d continuous infusion about two weeks, calcium levels before 14 to 15 mg/dL",became normocalcemic within about two weeks
same,plasma suramin level,"[3]; 350 mg/m^2 /d continuous infusion for about two weeks, 20160 min",250 to 300 µg/mL
same,half life in plasma (in words),[3]; human plasma,long plasma half life
same,calcium in the media,"[4]; Example 1, FIG. 1A, calvaria plus suramin 200 mcg/ml, mean +/- SEM, n=6, media with calvaria 9.88 +/- 1.49, P=0.0002",7.05 ± 0.32 mg/dL
same,calcium in the media,"[4]; Example 2, FIG. 1B, calvaria plus PTH (200 ng/ml) plus suramin 200 mcg/ml, n=6, vs. calvaria plus PTH P=0.0045",8.33 ± 0.57 mg/dL
same,calcium in the media,"[4]; Example 3, FIG. 1C, calvaria plus PTH-rp (200 ng/ml) plus suramin 200 mcg/ml, n=10, vs. calvaria plus PTH-rp P=0.0001",7.26 ± 0.18 mg/dL
same,inhibition of bone resorption (conclusion in words),[4]; based on Examples 1-3,possesses properties which allow it to inhibit bone resorption
same,blocking of TGF-B to cell surface receptors,[5],has been shown to block
same,blocking of EGF to cell surface receptors,[6],has been shown to block
same,time for which effective plasma levels are maintained without readministering,[7],6-8 weeks
same,blocking of PDGF to cell surface receptors,[8],has been shown to block
Parathyroid Hormone - related protein (PTH-rp): Human PTH-related protein (PTH-RP) (1-34) (Catalog No. 6151; Peninsular Laboratories Incorporated),calcium in the media,"[4]; Example 3, FIG. 1C, calvaria plus PTH-rp 200 ng/ml, without suramin, n=10, media with calvaria 9.1 +/- 0.46, P=0.0015",11.3 ± 0.34 mg/dL
calcitonin,response of hypercalcemia to calcitonin,"[2]; same patient, before suramin",becoming refractory to treatment with calcitonin
